From US10501425B2, “Microbiocidal oxadiazole derivatives” (SYNGENTA PARTICIPATIONS AG, priority 2015, dated 2019)

Key:
Phakopsora pachyrhizi = Phakopsora pachyrhizi / soybean / leaf disc preventative (Asian soybean rust); format: in vivo; conditions: foliar, 200 ppm in the applied formulation, soybean leaf disks, compared to untreated, read-out: disease control
Procedure, shortened: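 Read-out is percent disease control relative to untreated check discs, assessed once untreated discs show adequate disease, 12 to 14 days after application. Compounds, tested at 200 ppm in the applied formulation, are sprayed onto soybean leaf discs one day before inoculation with a spore suspension.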

[1] = system: Puccinia recondita f. Sp. Tritici; assay: Puccinia recondita f. sp. tritici / wheat / leaf disc preventative (brown rust); format: in vivo; conditions: foliar, 200 ppm in the applied formulation, wheat leaf segments cv. Kanzler, preventative (inoculated 1 day after application), compared to untreated, read-out: disease control
Procedure, shortened: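 Wheat leaf segments (cv. Kanzler) on water agar were sprayed with test compound (DMSO stock diluted in 0.025% Tween20/water), then spore-inoculated 1 day later. Incubation at 19° C., 75% rh, 12 h light/12 h dark; percent disease control versus untreated segments scored 7 to 9 days after application. Tested at 200 ppm.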

[2] = system: Glomerella lacenarium (Colletotrichum lagenarium); assay: Glomerella lagenarium liquid culture / cucumber / preventative (anthracnose); format: cell-based; conditions: Colletotrichum orbiculare; 20 ppm in the applied formulation; liquid culture (PDB), growth inhibition measured photometrically 3 to 4 days after application; compared to untreated; read-out: disease control
Procedure, shortened: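 Conidia from cryogenic storage were mixed into potato dextrose broth. This was added to compound diluted from DMSO into 0.025% Tween20, tested at 20 ppm. Plates were incubated in the dark at 24 °C and 96% relative humidity, and growth was read photometrically after 2–7 days as % activity versus untreated check.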

[3] = system: Puccinia recondita f. Sp. Tritici; assay: Puccinia recondita f. sp. tritici / wheat / leaf disc curative (brown rust); format: in vivo; conditions: foliar, 24 h, 200 ppm in the applied formulation, wheat leaf segments cv. Kanzler, curative (applied 1 day after inoculation), compared to untreated, read-out: disease control
Procedure, shortened: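 Wheat cv. Kanzler leaf segments on agar were inoculated with fungal spore suspension, held dark at 19° C and 75% RH, then sprayed 1 day later with formulated compound diluted in water. Incubation continued at 19° C, 75% RH, 12 h light/12 h dark; percent disease control versus untreated was scored 6 to 8 days after application.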

Uromyces viciae-fabae = Uromyces viciae-fabae / field bean / leaf disc preventative (faba-bean rust); format: in vivo; conditions: foliar, 288 h, 100 ppm in the applied formulation, field bean leaf discs, compared to untreated, read-out: disease control
Procedure: Leaf disks or leaf segments of various plant species are cut from plants grown in a greenhouse. The cut leaf disks or segments are placed in multiwell plates (24-well format) onto water agar. The leaf disks are sprayed with a test solution before (preventative) or after (curative) inoculation. Compounds to be tested are prepared as DMSO solutions (max. 10 mg/ml) which are diluted to the appropriate concentration with 0.025% Tween20 just before spraying. The inoculated leaf disks or segments are incubated under defined conditions (temperature, relative humidity, light, etc.) according to the respective test system. A single evaluation of disease level is carried out 3 to 14 days after inoculation, depending on the pathosystem. Percent disease control relative to the untreated check leaf disks or segments is then calculated. Field bean leaf discs are placed on water agar in multiwell plates (96-well format) and 10 μl of the formulated test compound diluted in acetone and a spreader pipetted onto the leaf disc. Two hours after application leaf discs are inoculated by spraying a spore suspension on the lower leaf surface. The leaf discs are incubated in a climate cabinet at 22° C. with 18 hour light/day and 70% relative humidity. The activity of a compound is assessed as percent disease control compared to untreated when an appropriate level of disease damage appears in untreated check leaf disks (12 days after application). The following compounds at 100 ppm in the applied formulation give at least 80% disease control in this test when compared to untreated control leaf discs under the same conditions, which show extensive disease development.

Row | SMILES | pest or weed control at 200 ppm (Phakopsora pachyrhizi) [%] | pest or weed control at 200 ppm [1] [%] | inhibition of growth at 20 ppm [2] [%] | pest or weed control at 200 ppm [3] [%] | pest or weed control at 100 ppm (Uromyces viciae-fabae) [%] | melting point [°C]
1 | CCC(=O)NCc1ccc(-c2noc(C(F)(F)F)n2)cc1 [Compound 1.1, N-[[4-[5-(trifluoromethyl)-1,2,4-oxadiazol-3-yl]phenyl]methyl]propanamide] | ≥ 80 | ≥ 80 | ≥ 80 | ≥ 80 | ≥ 80 | –
2 | CCC(COC)C(=O)NCc1ccc(-c2noc(C(F)(F)F)n2)cc1 (stereo not shown) [Compound 1.19, 2-(methoxymethyl)-N-[[4-[5-(trifluoromethyl)-1,2,4-oxadiazol-3-yl]phenyl]methyl]butanamide] | ≥ 80 | ≥ 80 | ≥ 80 | ≥ 80 | ≥ 80 | –
3 | C#CCCC(=O)NCc1ccc(-c2noc(C(F)(F)F)n2)cc1 [Compound 1.5, N-[[4-[5-(trifluoromethyl)-1,2,4-oxadiazol-3-yl]phenyl]methyl]pent-4-ynamide] | ≥ 80 | ≥ 80 | ≥ 80 | ≥ 80 | ≥ 80 | –
4 | O=C(CCCCC(F)(F)F)NCc1ccc(-c2noc(C(F)(F)F)n2)cc1 [Compound 1.18, 6,6,6-trifluoro-N-[[4-[5-(trifluoromethyl)-1,2,4-oxadiazol-3-yl]phenyl]methyl]hexanamide] | ≥ 80 | ≥ 80 | – | – | ≥ 80 | –
5 | CCC(CC(=O)NCc1ccc(-c2noc(C(F)(F)F)n2)cc1)C(F)(F)F (stereo not shown) [Compound 1.24, 3-(trifluoromethyl)-N-[[4-[5-(trifluoromethyl)-1,2,4-oxadiazol-3-yl]phenyl]methyl]pentanamide] | – | – | – | – | ≥ 80 | –
6 | N#CCC(=O)NCc1ccc(-c2noc(C(F)(F)F)n2)cc1 [Compound 1.22, 2-cyano-N-[[4-[5-(trifluoromethyl)-1,2,4-oxadiazol-3-yl]phenyl]methyl]acetamide] | ≥ 80 | ≥ 80 | – | ≥ 80 | ≥ 80 | –
7 | CC(O)C(=O)NCc1ccc(-c2noc(C(F)(F)F)n2)cc1 (stereo not shown) [Compound 1.28, 2-hydroxy-N-[[4-[5-(trifluoromethyl)-1,2,4-oxadiazol-3-yl]phenyl]methyl]propanamide] | ≥ 80 | ≥ 80 | ≥ 80 | ≥ 80 | – | 90 to 94
8 | C=C(C)C(=O)NCc1ccc(-c2noc(C(F)(F)F)n2)cc1 [Compound 1.16, 2-methyl-N-[[4-[5-(trifluoromethyl)-1,2,4-oxadiazol-3-yl]phenyl]methyl]prop-2-enamide] | ≥ 80 | ≥ 80 | ≥ 80 | – | ≥ 80 | –
9 | CON(C)C(=O)NCCc1ccc(-c2noc(C(F)(F)F)n2)cc1 [Compound 3.5, 1-methoxy-1-methyl-3-[2-[4-[5-(trifluoromethyl)-1,2,4-oxadiazol-3-yl]phenyl]ethyl]urea] | ≥ 80 | ≥ 80 | ≥ 80 | ≥ 80 | – | 80 to 84
10 | COC(=O)NCc1ccc(-c2noc(C(F)(F)F)n2)cc1 [Compound 2.4, methyl N-[[4-[5-(trifluoromethyl)-1,2,4-oxadiazol-3-yl]phenyl]methyl]carbamate] | ≥ 80 | ≥ 80 | ≥ 80 | ≥ 80 | – | 116 to 119
11 | COC(C)(C)C(=O)NCc1ccc(-c2noc(C(F)(F)F)n2)cc1 [Compound 1.103, 2-methoxy-2-methyl-N-[[4-[5-(trifluoromethyl)-1,2,4-oxadiazol-3-yl]phenyl]methyl]propanamide] | ≥ 80 | ≥ 80 | ≥ 80 | ≥ 80 | – | 77 to 80
12 | C#CCOC(=O)NCc1ccc(-c2noc(C(F)(F)F)n2)cc1 [Compound 2.19, prop-2-ynyl N-[[4-[5-(trifluoromethyl)-1,2,4-oxadiazol-3-yl]phenyl]methyl]carbamate] | ≥ 80 | ≥ 80 | ≥ 80 | ≥ 80 | – | 93 to 95
13 | CCOC(=O)NCCc1ccc(-c2noc(C(F)(F)F)n2)cc1 [Compound 2.5, ethyl N-[2-[4-[5-(trifluoromethyl)-1,2,4-oxadiazol-3-yl]phenyl]ethyl]carbamate] | ≥ 80 | ≥ 80 | ≥ 80 | ≥ 80 | – | 92 to 96
14 | COCCC(=O)NC(C)(C)c1ccc(-c2noc(C(F)(F)F)n2)cc1 [Compound 1.94, 3-methoxy-N-[1-methyl-1-[4-[5-(trifluoromethyl)-1,2,4-oxadiazol-3-yl]phenyl]ethyl]propanamide] | ≥ 80 | ≥ 80 | ≥ 80 | ≥ 80 | – | 94 to 103
15 | CCC(=O)NCc1ccc(-c2noc(C(F)(F)F)n2)c(F)c1 [Compound 1.34, N-[[3-fluoro-4-[5-(trifluoromethyl)-1,2,4-oxadiazol-3-yl]phenyl]methyl]propanamide] | ≥ 80 | ≥ 80 | ≥ 80 | ≥ 80 | – | 108 to 110
16 | CN(C)C(=O)NCc1ccc(-c2noc(C(F)(F)F)n2)cc1 [Compound 3.1, 1,1-dimethyl-3-[[4-[5-(trifluoromethyl)-1,2,4-oxadiazol-3-yl]phenyl]methyl]urea] | ≥ 80 | ≥ 80 | ≥ 80 | ≥ 80 | – | 118 to 125
17 | COCCC(=O)NCc1ccc(-c2noc(C(F)(F)F)n2)cc1 [Compound 1.11, 3-methoxy-N-[[4-[5-(trifluoromethyl)-1,2,4-oxadiazol-3-yl]phenyl]methyl]propanamide] | ≥ 80 | ≥ 80 | ≥ 80 | – | ≥ 80 | –
18 | CCC(=O)NCc1ccc(-c2noc(C(F)(F)F)n2)c(F)c1F [Compound 1.54, N-[[2,3-difluoro-4-[5-(trifluoromethyl)-1,2,4-oxadiazol-3-yl]phenyl]methyl]propanamide] | ≥ 80 | ≥ 80 | ≥ 80 | ≥ 80 | – | 112 to 118
19 | COCCOC(=O)NCc1ccc(-c2noc(C(F)(F)F)n2)cc1 [Compound 2.3, 2-methoxyethyl N-[[4-[5-(trifluoromethyl)-1,2,4-oxadiazol-3-yl]phenyl]methyl]carbamate] | ≥ 80 | ≥ 80 | ≥ 80 | ≥ 80 | – | 82 to 85
20 | CCC(=O)NCC(F)c1ccc(-c2noc(C(F)(F)F)n2)cc1 (stereo not shown) [Compound 1.107, N-[2-fluoro-2-[4-[5-(trifluoromethyl)-1,2,4-oxadiazol-3-yl]phenyl]ethyl]propanamide] | ≥ 80 | ≥ 80 | ≥ 80 | ≥ 80 | – | 118 to 128
